Data published in ChEMBL document CHEMBL1157738, “Simocyclinone D8 turns on against Gram-negative bacteria in a clinical setting” (2010).
≈ marks a conversion by molar mass, not a printed value.

Legend:
[1] = system: Escherichia coli; experiment: Antibacterial activity against Escherichia coli isolate 32 after 24 hrs by twofold serial dilution method; assay type: functional
[2] = system: Klebsiella pneumoniae; experiment: Antibacterial activity against Klebsiella pneumoniae isolate 97 expressing qnr B19 gene after 24 hrs by twofold serial dilution method; assay type: functional
[3] = system: Klebsiella pneumoniae; experiment: Antibacterial activity against Klebsiella pneumoniae isolate 134 assessed as residual bacterial survival at 50 mg/L after 24 hrs by twofold serial dilution method; assay type: functional; details: isolate 134, 24 h
[4] = system: Escherichia coli; experiment: Antibacterial activity against Escherichia coli isolate 47 expressing qnr B19 gene after 24 hrs by twofold serial dilution method; assay type: functional
[5] = system: Klebsiella pneumoniae; experiment: Antibacterial activity against Klebsiella pneumoniae isolate 97 assessed as drug uptake relative to total amount drug treated; assay type: functional, organism-based
[6] = system: Escherichia coli; experiment: Antibacterial activity against Escherichia coli Top10 assessed as drug uptake relative to total amount drug treated; assay type: functional, organism-based
[7] = system: Escherichia coli; experiment: Antibacterial activity against Escherichia coli isolate 32 assessed as residual bacterial survival at 50 mg/L after 24 hrs by twofold serial dilution method; assay type: functional; details: isolate 32, 24 h
[8] = system: Klebsiella pneumoniae; experiment: Antibacterial activity against Klebsiella pneumoniae isolate 172 expressing qnr B19 gene, GyrA D87G mutant assessed as residual bacterial survival at 50 mg/L after 24 hrs by twofold serial dilution method; assay type: functional; details: isolate 172, 24 h
[9] = system: Escherichia coli; experiment: Antibacterial activity against Escherichia coli Top10 assessed as residual bacterial survival at 50 mg/L after 24 hrs by twofold serial dilution method; assay type: functional; details: Top10, 24 h
[10] = system: Escherichia coli; experiment: Antibacterial activity against Escherichia coli isolate 21 assessed as residual bacterial survival at 50 mg/L after 24 hrs by twofold serial dilution method; assay type: functional; details: isolate 21, 24 h
[11] = system: Escherichia coli; experiment: Antibacterial activity against Escherichia coli HB101 assessed as residual bacterial survival at 50 mg/L after 24 hrs by twofold serial dilution method; assay type: functional; details: HB101, 24 h
[12] = system: Escherichia coli; experiment: Antibacterial activity against Escherichia coli isolate 7 after 24 hrs by twofold serial dilution method; assay type: functional
[13] = system: Escherichia coli; experiment: Antibacterial activity against Escherichia coli isolate 50 expressing qnr B19 gene after 24 hrs by twofold serial dilution method; assay type: functional
[14] = system: Escherichia coli; experiment: Antibacterial activity against Escherichia coli isolate 24 assessed as drug uptake; assay type: functional, organism-based
[15] = system: Klebsiella pneumoniae; experiment: Antibacterial activity against Klebsiella pneumoniae isolate 134 after 24 hrs by twofold serial dilution method; assay type: functional
[16] = system: Klebsiella pneumoniae; experiment: Antibacterial activity against Klebsiella pneumoniae isolate 91 after 24 hrs by twofold serial dilution method; assay type: functional
[17] = system: Escherichia coli; experiment: Antibacterial activity against Escherichia coli isolate 7 assessed as residual bacterial survival at 50 mg/L after 24 hrs by twofold serial dilution method; assay type: functional; details: isolate 7, 24 h
[18] = system: Staphylococcus aureus; experiment: Antibacterial activity against Staphylococcus aureus assessed as residual bacterial survival at 50 mg/L after 24 hrs by twofold serial dilution method; assay type: functional
[19] = system: Escherichia coli; experiment: Antibacterial activity against Escherichia coli isolate 24 assessed as drug uptake relative to total amount drug treated; assay type: functional, organism-based
[20] = system: Escherichia coli; experiment: Antibacterial activity against Escherichia coli Top10 after 24 hrs by twofold serial dilution method; assay type: functional
[21] = system: Escherichia coli; experiment: Antibacterial activity against Escherichia coli isolate 85 expressing GyrA S83L mutant assessed as residual bacterial survival at 50 mg/L after 24 hrs by twofold serial dilution method; assay type: functional; details: isolate 85, 24 h
[22] = system: Escherichia coli; experiment: Antibacterial activity against Escherichia coli isolate 41 assessed as residual bacterial survival at 50 mg/L after 24 hrs by twofold serial dilution method; assay type: functional; details: isolate 41, 24 h
[23] = system: Klebsiella pneumoniae; experiment: Antibacterial activity against Klebsiella pneumoniae isolate 173 after 24 hrs by twofold serial dilution method; assay type: functional
[24] = system: Klebsiella pneumoniae; experiment: Antibacterial activity against Klebsiella pneumoniae isolate 204 expressing qnr B19 gene after 24 hrs by twofold serial dilution method; assay type: functional
[25] = system: Escherichia coli; experiment: Antibacterial activity against Escherichia coli isolate 13 assessed as residual bacterial survival at 50 mg/L after 24 hrs by twofold serial dilution method; assay type: functional; details: isolate 13, 24 h
[26] = system: Escherichia coli; experiment: Antibacterial activity against Escherichia coli JM110 assessed as residual bacterial survival at 50 mg/L after 24 hrs by twofold serial dilution method; assay type: functional; details: JM110, 24 h
[27] = system: Klebsiella pneumoniae; experiment: Antibacterial activity against Klebsiella pneumoniae isolate 92 assessed as residual bacterial survival at 50 mg/L after 24 hrs by twofold serial dilution method; assay type: functional; details: isolate 92, 24 h
[28] = system: Klebsiella pneumoniae; experiment: Antibacterial activity against Klebsiella pneumoniae isolate 328 expressing qnr B19 gene, GyrA D87G mutant assessed as residual bacterial survival at 50 mg/L after 24 hrs by twofold serial dilution method; assay type: functional; details: isolate 328, 24 h
[29] = system: Klebsiella pneumoniae; experiment: Antimicrobial activity against Klebsiella pneumoniae isolate 92 assessed as drug uptake; assay type: functional, organism-based
[30] = system: Escherichia coli; experiment: Antibacterial activity against Escherichia coli JM110 after 24 hrs by twofold serial dilution method; assay type: functional
[31] = system: Escherichia coli; experiment: Antibacterial activity against Escherichia coli HB101 after 24 hrs by twofold serial dilution method; assay type: functional
[32] = system: Escherichia coli; experiment: Antibacterial activity against Escherichia coli isolate 50 expressing qnr B19 gene assessed as residual bacterial survival at 50 mg/L after 24 hrs by twofold serial dilution method; assay type: functional; details: isolate 50, 24 h
[33] = system: Klebsiella pneumoniae; experiment: Antibacterial activity against Klebsiella pneumoniae isolate 173 assessed as residual bacterial survival at 50 mg/L after 24 hrs by twofold serial dilution method; assay type: functional; details: isolate 173, 24 h
[34] = system: Escherichia coli; experiment: Antibacterial activity against Escherichia coli isolate 47 expressing qnr B19 gene assessed as residual bacterial survival at 50 mg/L after 24 hrs by twofold serial dilution method; assay type: functional; details: isolate 47, 24 h
[35] = system: Escherichia coli; experiment: Antibacterial activity against Escherichia coli isolate 21 after 24 hrs by twofold serial dilution method; assay type: functional
[36] = system: Klebsiella pneumoniae; experiment: Antibacterial activity against Klebsiella pneumoniae isolate 204 expressing qnr B19 gene assessed as residual bacterial survival at 50 mg/L after 24 hrs by twofold serial dilution method; assay type: functional; details: isolate 204, 24 h
[37] = system: Staphylococcus aureus; experiment: Antibacterial activity against Staphylococcus aureus after 24 hrs by twofold serial dilution method; assay type: functional
[38] = system: Escherichia coli; experiment: Antibacterial activity against Escherichia coli isolate 50 assessed as drug uptake relative to total amount drug treated; assay type: functional, organism-based
[39] = system: Escherichia coli; experiment: Antibacterial activity against Escherichia coli isolate 9 expressing qnr B19 gene, GyrA D87G mutant assessed as residual bacterial survival at 50 mg/L after 24 hrs by twofold serial dilution method; assay type: functional; details: isolate 9, 24 h
[40] = system: Escherichia coli; experiment: Antibacterial activity against Escherichia coli isolate 191 expressing qnr S1 gene assessed as residual bacterial survival at 50 mg/L after 24 hrs by twofold serial dilution method; assay type: functional; details: isolate 191, 24 h
[41] = system: Escherichia coli; experiment: Antibacterial activity against Escherichia coli JM109 after 24 hrs by twofold serial dilution method; assay type: functional
[42] = system: Escherichia coli; experiment: Antibacterial activity against Escherichia coli isolate 191 expressing qnr S1 gene after 24 hrs by twofold serial dilution method; assay type: functional
[43] = system: Escherichia coli; experiment: Antibacterial activity against Escherichia coli isolate 50 assessed as drug uptake; assay type: functional, organism-based
[44] = system: Klebsiella pneumoniae; experiment: Antibacterial activity against Klebsiella pneumoniae isolate 92 assessed as drug uptake relative to total amount drug treated; assay type: functional, organism-based
[45] = system: Klebsiella pneumoniae; experiment: Antibacterial activity against Klebsiella pneumoniae isolate 92 after 24 hrs by twofold serial dilution method; assay type: functional
[46] = system: Escherichia coli; experiment: Antibacterial activity against Escherichia coli Top10 assessed as drug uptake; assay type: functional, organism-based
[47] = system: Escherichia coli; experiment: Antibacterial activity against Escherichia coli isolate 24 assessed as residual bacterial survival at 50 mg/L after 24 hrs by twofold serial dilution method; assay type: functional; details: isolate 24, 24 h
[48] = system: Escherichia coli; experiment: Antibacterial activity against Escherichia coli isolate 24 after 24 hrs by twofold serial dilution method; assay type: functional

With `CC(=O)O[C@@H]1[C@@H](C)O[C@@H](c2ccc3c(c2O)[C@@H](O)[C@]24O[C@@]2(C3=O)[C@@]2(O)C(=O)C=C(C)C[C@@]2(O)C[C@@H]4O)C[C@H]1OC(=O)/C=C/C=C/C=C/C=C/C(=O)Nc1c(O)c2ccc(O)c(Cl)c2oc1=O` [SIMOCYCLINONE D8] the MIC50 [1] was greater than 100 µg/mL, the MIC50 [2] was 50 µg/mL (≈ 53.6 µM) and the survival at 50 µg/mL [3] was 51%. For the same molecule, the MIC50 [4] was 12 µg/mL (≈ 12.9 µM), the Drug uptake [5] was 1.3% and the Drug uptake [6] was 2.61%. The survival at 50 µg/mL [7] was greater than 90%, the survival at 50 µg/mL [8] was greater than 90% and the survival at 50 µg/mL [9] was greater than 90%. It also gave a survival at 50 µg/mL [10] greater than 90%, a survival at 50 µg/mL [11] greater than 90% and an MIC50 [12] greater than 100%. The MIC50 [13] was 12 µg/mL (≈ 12.9 µM), the Drug uptake [14] was 260 pmol and the MIC50 [15] was 25 µg/mL (≈ 26.8 µM). For the same molecule, the MIC50 [16] was greater than 100 µg/mL, the survival at 50 µg/mL [17] was greater than 90% and the survival at 50 µg/mL [18] was 66%. For the same molecule, the Drug uptake [19] was 7.53%, the MIC50 [20] was greater than 100 µg/mL and the survival at 50 µg/mL [21] was greater than 90%. It also gave a survival at 50 µg/mL [22] of 9%, an MIC50 [23] of 100 µg/mL (≈ 107 µM) and an MIC50 [24] greater than 100%. The survival at 50 µg/mL [25] was greater than 90%, the survival at 50 µg/mL [26] was greater than 90% and the survival at 50 µg/mL [27] was 77%. For the same molecule, the survival at 50 µg/mL [28] was greater than 90%, the Drug uptake [29] was 60 pmol and the MIC50 [30] was greater than 100 µg/mL. It also gave an MIC50 [31] greater than 100 µg/mL, a survival at 50 µg/mL [32] of 41% and a survival at 50 µg/mL [33] of 83%. It also gave a survival at 50 µg/mL [34] of 44%, an MIC50 [35] greater than 100 µg/mL and a survival at 50 µg/mL [36] greater than 90%. For the same molecule, the MIC50 [37] was 50 µg/mL (≈ 53.6 µM), the Drug uptake [38] was 5.87% and the survival at 50 µg/mL [39] was greater than 90%. The survival at 50 µg/mL [40] was 56%, the MIC50 [41] was greater than 100 µg/mL and the MIC50 [42] was 25 µg/mL (≈ 26.8 µM). The Drug uptake [43] was 180 pmol, the Drug uptake [44] was 1.96% and the MIC50 [45] was 50 µg/mL (≈ 53.6 µM). The Drug uptake [46] was 80 pmol, the survival at 50 µg/mL [47] was 21% and the MIC50 [48] was 3.12 µg/mL (≈ 3.35 µM).
